This is an account of results in PMC6874179, “Development of Macrocycle Kinase Inhibitors for ALK2 Using Fibrodysplasia Ossificans Progressiva‐Derived Endothelial Cells” (JBMR Plus, 2019).

In brackets after ≈: the same amount, converted by molar mass. Like-named read-outs stand apart in the source and are kept apart here.

The nature of data set [1]: Microsomal incubations, mLM. In kind it is in vitro ADME. The note with it: mouse, liver microsomes, pH 7.4; microsomes 0.5 mg/ml, 0.5 μM compound; read-out: Metabolic clearance mLM. In general terms: Microsomes from liver hold many membrane-bound enzymes, among them those of drug oxidation.
Data set [2] can be described thus: Microsomal incubations, hLM. In kind it is in vitro ADME. As to conditions: human, pooled liver microsomes, pH 7.4; microsomes 0.5 mg/ml, 0.5 μM compound; read-out: Metabolic clearance hLM. How it is done:
Pooled human liver microsomes were purchased from Xenotech LLC (Kansas City, KS). Microsomes (0.5 mg/ml) were preincubated with 0.5 μM test compound for 7 min at 37°C in 50 mM phosphate buffer, pH 7.4. The reactions were initiated by adding prewarmed cofactor (0.44 mM NADPH). Aliquots of samples were taken at 0, 5, 10, 20 and 45 min and the reactions terminated by addition of cold acetonitrile containing an internal standard. Samples were centrifuged at 3000g for 10 min at 4°C and then supernatants were analyzed by LC/MS/MS for the amount of parent compound remaining.

Data set [3] has as its target T1, TBR2 (Homo sapiens, UniProt P37173).
T1 construct: T7 phage fusion (or DNA tag for qPCR if made in HEK-293); purchased DiscoverX; host or cells: E. coli (T7 phage) or HEK-293
The data set can be described thus: DiscoverX Kd determination. In kind it is binding. How it is done:
DiscoverX Kd determination: For most assays, kinase-tagged T7 phage strains were prepared in an E. coli host derived from the BL21 strain. E. coli were grown to log-phase and infected with T7 phage and incubated with shaking at 32°C until lysis. The lysates were centrifuged and filtered to remove cell debris. The remaining kinases were produced in HEK-293 cells and subsequently tagged with DNA for qPCR detection. […] The liganded beads were blocked with excess biotin and washed with blocking buffer (SeaBlock (Pierce), 1% BSA, 0.05% Tween 20, 1 mM DTT) to remove unbound ligand and to reduce non-specific binding. […] Kds were determined using an 11-point 3-fold compound dilution series with three DMSO control points. […] The compounds were then diluted directly into the assays such that the final concentration of DMSO was 0.9%. All reactions performed in polypropylene 384-well plate. Each was a final volume of 0.02 ml. […] The kinase concentration in the eluates was measured by qPCR. An 11-point 3-fold serial dilution of each test compound was prepared in 100% DMSO at 100x final test concentration and subsequently diluted to 1x in the assay (final DMSO concentration = 1%). Most Kds were determined using a compound top concentration = 30.000 nM. […] Binding constants (Kds) were calculated with a standard dose-response curve using the Hill equation: Response = Background + Signal – Background 1 + (KdHill Slope / DoseHill Slope). The Hill Slope was set to -1. Curves were fitted using a non-linear least square fit with the Levenberg-Marquardt algorithm.

In data set [4] the target is T2, ACVR2B (Homo sapiens, UniProt Q13705).
T2 construct: T7 phage fusion (or DNA tag for qPCR if made in HEK-293); purchased DiscoverX; host or cells: E. coli (T7 phage) or HEK-293
The data set can be described thus: DiscoverX Kd determination. In kind it is binding. How it is done: (§1) DiscoverX Kd determination: For most assays, kinase-tagged T7 phage strains were prepared in an E. coli host derived from the BL21 strain. E. coli were grown to log-phase and infected with T7 phage and incubated with shaking at 32°C until lysis. The lysates were centrifuged and filtered to remove cell debris. The remaining kinases were produced in HEK-293 cells and subsequently tagged with DNA for qPCR detection. Streptavidin-coated magnetic beads were treated with biotinylated small molecule ligands for 30 minutes at room temperature to generate affinity resins for kinase assays. The liganded beads were blocked with excess biotin and washed with blocking buffer (SeaBlock (Pierce), 1% BSA, 0.05% Tween 20, 1 mM DTT) to remove unbound ligand and to reduce non-specific binding. […] Test compounds were prepared as 111X stocks in 100% DMSO. Kds were determined using an 11-point 3-fold compound dilution series with three DMSO control points. […] The compounds were then diluted directly into the assays such that the final concentration of DMSO was 0.9%. All reactions performed in polypropylene 384-well plate. Each was a final volume of 0.02 ml. […] The kinase concentration in the eluates was measured by qPCR. An 11-point 3-fold serial dilution of each test compound was prepared in 100% DMSO at 100x final test concentration and subsequently diluted to 1x in the assay (final DMSO concentration = 1%). Most Kds were determined using a compound top concentration = 30.000 nM. […] Binding constants (Kds) were calculated with a standard dose-response curve using the Hill equation: Response = Background + Signal – Background 1 + (KdHill Slope / DoseHill Slope). The Hill Slope was set to -1. Curves were fitted using a non-linear least square fit with the Levenberg-Marquardt algorithm.

Data set [5] addresses T3, ACVR2A (Homo sapiens, UniProt P27037).
T3 construct: T7 phage fusion (or DNA tag for qPCR if made in HEK-293); purchased DiscoverX; host or cells: E. coli (T7 phage) or HEK-293
Kind of data set: DiscoverX Kd determination. In kind it is binding. The protocol:
as §1

Data set [6] is described as follows: Chromlog D. It is filed as physicochemical. The source says:
Supplement JBM4-3-na-s005.docx, table 3: Table S3. Solubility and metabolic clearance of selected macrocyclic inhibitors. | column: Chromlog D

Data set [7] in a line: Solubility determination. As to conditions: kinetic from dmso stock, 2-hour equilibrium, room temperature. In kind it is physicochemical. How it is done: Test compound from 5 mM DMSO stock solution were diluted to 250 µM either in 50 mM PBS pH 7.4 or FaSSIF pH 6.5 in triplicate. DMSO final concentration was 5%. After a 2-hour equilibrium at room temperature and under shaking, samples were centrifuged at 3000g for 10 min at room temperature. A calibration curve was prepared in LC mobile phase from the 5 mM DMSO stock solution. Samples and calibration curve were analyzed by LC with UV detection.

The mark [8] stands for this setting: PBS buffer, aqueous buffer, 50 mM PBS pH 7.4, 5% DMSO, read-out: Solubility in µM PBS.
The mark [9] stands for this setting: FaSSIF pH 6.5, 5% DMSO, read-out: Solubility in µM FaSSIF.

T1 sequence (P37173 23-567): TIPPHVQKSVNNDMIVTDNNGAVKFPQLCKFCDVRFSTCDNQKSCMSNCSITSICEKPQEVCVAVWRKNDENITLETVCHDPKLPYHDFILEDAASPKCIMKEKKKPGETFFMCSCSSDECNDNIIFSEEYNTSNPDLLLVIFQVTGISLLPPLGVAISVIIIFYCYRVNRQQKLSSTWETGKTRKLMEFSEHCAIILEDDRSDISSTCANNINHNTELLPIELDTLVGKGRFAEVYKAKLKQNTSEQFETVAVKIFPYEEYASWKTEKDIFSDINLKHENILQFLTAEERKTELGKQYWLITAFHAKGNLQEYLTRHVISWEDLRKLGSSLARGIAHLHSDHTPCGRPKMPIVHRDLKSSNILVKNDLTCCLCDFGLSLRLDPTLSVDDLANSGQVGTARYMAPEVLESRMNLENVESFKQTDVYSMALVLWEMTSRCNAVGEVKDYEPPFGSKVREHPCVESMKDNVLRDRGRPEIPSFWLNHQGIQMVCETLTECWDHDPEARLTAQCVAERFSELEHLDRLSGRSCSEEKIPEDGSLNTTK
T2 sequence (Q13705 19-512): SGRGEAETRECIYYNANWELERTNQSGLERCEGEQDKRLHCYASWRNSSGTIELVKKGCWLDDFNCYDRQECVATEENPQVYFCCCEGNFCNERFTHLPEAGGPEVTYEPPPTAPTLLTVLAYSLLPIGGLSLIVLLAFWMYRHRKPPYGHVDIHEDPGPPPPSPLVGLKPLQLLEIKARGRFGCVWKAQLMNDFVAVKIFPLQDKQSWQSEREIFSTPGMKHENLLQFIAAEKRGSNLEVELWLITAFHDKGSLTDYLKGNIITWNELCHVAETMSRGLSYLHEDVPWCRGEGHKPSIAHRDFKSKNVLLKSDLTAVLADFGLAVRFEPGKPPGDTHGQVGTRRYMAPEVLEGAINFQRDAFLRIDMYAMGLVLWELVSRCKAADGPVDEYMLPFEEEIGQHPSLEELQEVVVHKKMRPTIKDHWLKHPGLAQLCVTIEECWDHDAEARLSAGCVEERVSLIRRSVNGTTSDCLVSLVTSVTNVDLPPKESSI
T3 sequence (P27037 20-513): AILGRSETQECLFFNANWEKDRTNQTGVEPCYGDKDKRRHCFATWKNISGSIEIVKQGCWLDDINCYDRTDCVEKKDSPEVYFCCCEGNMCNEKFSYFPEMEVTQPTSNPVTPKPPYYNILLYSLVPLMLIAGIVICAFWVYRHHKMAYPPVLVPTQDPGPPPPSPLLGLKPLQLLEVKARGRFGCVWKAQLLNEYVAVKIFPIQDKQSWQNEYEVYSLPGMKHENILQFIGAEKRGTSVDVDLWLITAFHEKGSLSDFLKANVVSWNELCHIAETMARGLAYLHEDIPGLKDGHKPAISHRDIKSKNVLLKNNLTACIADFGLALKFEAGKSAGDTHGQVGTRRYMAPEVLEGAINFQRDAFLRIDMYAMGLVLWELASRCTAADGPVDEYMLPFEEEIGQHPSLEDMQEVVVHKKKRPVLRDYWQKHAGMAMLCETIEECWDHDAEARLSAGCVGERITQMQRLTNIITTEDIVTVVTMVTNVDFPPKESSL

With `c1ccc2c(-c3cnn4cc(-c5ccc(N6CCNCC6)cc5)cnc34)ccnc2c1` [LDN-193189, reference compound], the microsomal CLint at 0.5 μM was 95 µL/min/mg in data set [1] and 61 µL/min/mg in data set [2]. The Kd (as a rule, the constant that tells how readily two partners part at equilibrium) in data set [3] worked out at 26 nM; in data set [4] it was 11 nM; in data set [5], 12 nM. The chromatographic logD (in general, lipophilicity estimated from chromatographic retention) in data set [6] was determined as 2.7. Also, the solubility (in general, how much of the substance goes into solution per volume) at 2 h in data set [7] (setting [8]) stood at 5 µM (≈ 2.03 µg/mL); in data set [7] (setting [9]), 49 µM (≈ 19.9 µg/mL).
In the case of `Clc1cc2cc(c1)-c1cnn3ccc(nc13)NCCOCCO2` [OD36], the microsomal CLint at 0.5 μM came to 207 µL/min/mg in data set [1] and 59 µL/min/mg in data set [2]. For the same compound, the results for the Kd in data set [3] (read-out: Kd in nM TBR2), in data set [4] and in data set [5] were 680 nM, 90 nM and 3000 nM, respectively. The same compound gave a chromatographic logD in data set [6] of 5.4. In addition, the solubility at 2 h in data set [7] (setting [8]) amounted to 2 µM (≈ 0.662 µg/mL); in data set [7] (setting [9]), 212 µM (≈ 70.1 µg/mL).
With `Cc1cc2cc(c1)-c1cnn3ccc(nc13)NCCNC(=O)CCN(C)C2` [OD52], the figures for the microsomal CLint at 0.5 μM in data set [1] and in data set [2] were 84 µL/min/mg and 72 µL/min/mg, respectively. The Kd amounted to 2500 nM in data set [3] (read-out: Kd in nM TBR2), 220 nM in data set [4] and 590 nM in data set [5]. In data set [6], this compound gave a chromatographic logD of 3.9. Moreover, the solubility at 2 h in data set [7] (setting [8]) amounted to 140 µM (≈ 51 µg/mL); in data set [7] (setting [9]) it was 240 µM (≈ 87.5 µg/mL).
